Source: US6737383B1, “Herbicidal oxadiazolidines” (priority 1999, dated 2004)

Assays:
[1] = system: bedstraw; assay: Test B pre/postemergence bedstraw; type: in vivo, Galium aparine; details: Postemergence, Rate 62 g/ha; scale 0 to 10, 0 is no effect, 10 is complete control
Summary of the method: (§1)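 Herbicidal effect was estimated by eye on a ten-point control scale after plants spent twelve to sixteen days in a greenhouse following soil or foliar treatment. Foliar sprays targeted plants at one to four leaves; all doses were formulated in a non-phytotoxic solvent with surfactant.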

[2] = system: blackgrass; assay: Test B pre/postemergence blackgrass; type: in vivo, Alopecurus myosuroides
Summary of the method: as §1

[3] = system: surinam grass; assay: Test B pre/postemergence surinam grass; type: in vivo, Brachiaria decumbens
Summary of the method: as §1

[4] = system: cocklebur; assay: Test B pre/postemergence cocklebur; type: in vivo, Xanthium strumarium
Summary of the method: as §1

[5] = system: corn; assay: Test B pre/postemergence corn; type: in vivo, Zea mays
Summary of the method: as §1

[6] = system: crabgrass; assay: Test B pre/postemergence crabgrass; type: in vivo, Digitaria sanguinalis
Summary of the method: as §1

[7] = system: giant foxtail; assay: Test B pre/postemergence giant foxtail; type: in vivo, Setaria faberii
Summary of the method: as §1

[8] = system: morningglory; assay: Test B pre/postemergence morningglory; type: in vivo, Ipomoea hederacea
Summary of the method: as §1

[9] = system: pigweed; assay: Test B pre/postemergence pigweed; type: in vivo, Amaranthus retroflexus
Summary of the method: as §1

[10] = system: rape; assay: Test B pre/postemergence rape; type: in vivo, Brassica napus
Summary of the method: as §1

[11] = system: soybean; assay: Test B pre/postemergence soybean; type: in vivo, Glycine max
Summary of the method: as §1

[12] = system: sugar beet; assay: Test B pre/postemergence sugar beet; type: in vivo, Beta vulgaris
Summary of the method: as §1

[13] = system: velvetleaf; assay: Test B pre/postemergence velvetleaf; type: in vivo, Abutilon theophrasti
Summary of the method: as §1

[14] = system: wheat; assay: Test B pre/postemergence wheat; type: in vivo, Triticum aestivum
Summary of the method: as §1

[15] = system: wild oat; assay: Test B pre/postemergence wild oat; type: in vivo, Avena fatua
Summary of the method: as §1

[16] = system: purple nutsedge; assay: Test B pre/postemergence purple nutsedge; type: in vivo, Cyperus rotundus
Summary of the method: as §1

[17] = system: rice; assay: Test B flood test rice; type: in vivo, Oryza sativa
Summary of the method: (§2)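 Each value is a visual injury score relative to controls, with 10 meaning complete control and 0 no effect. Evaluation took place twelve to sixteen days after the 2-leaf-stage plants were treated and kept in the greenhouse.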

[18] = system: smallflower flatsedge; assay: Test B flood test smallflower flatsedge; type: in vivo, Cyperus difformis
Summary of the method: as §2

[19] = system: duck salad; assay: Test B flood test duck salad; type: in vivo, Heteranthera limosa
Summary of the method: as §2

[20] = system: bamyardgrass; assay: Test B flood test barnyardgrass; type: in vivo, Echinochloa crus-galli
Summary of the method: as §2

[21] = Postemergence, Rate 62 g/ha, scale 0 to 10, 0 is no effect, 10 is complete control
[22] = Postemergence, Rate 250 g/ha, scale of 0 to 10, 0 is no effect, 10 is complete control
[23] = Postemergence, Rate 500 g/ha, scale of 0 to 10 where 0 is no effect and 10 is complete control
[24] = Preemergence, Rate 62 g/ha, scale of 0 to 10 where 0 is no effect and 10 is complete control
[25] = Preemergence, Rate 125 g/ha, scale of 0 to 10 where 0 is no effect and 10 is complete control
[26] = Preemergence, Rate 250 g/ha, scale 0 to 10 (0 no effect, 10 complete control)
[27] = Preemergence, Rate 500 g/ha, scale of 0 to 10 where 0 is no effect and 10 is complete control
[28] = Postemergence, Rate 125 g/ha, scale of 0 to 10 where 0 is no effect and 10 is complete control
[29] = Rate 62 g/ha, flood test species, Pre-emergence, visual evaluation after twelve to sixteen days
[30] = Rate 125 g/ha, under heading Pre-emergence, flood test species, visual evaluation after twelve to sixteen days
[31] = Rate 250 g/ha, Pre-emergence (flood test species), scale 0 to 10, 0 is no effect, 10 is complete control
[32] = Rate 500 g/ha, Pre-emergence section of Table B, 0 to 10 scale (0 no effect, 10 complete control)

CC(C)N(C(=O)n1oc(=O)n(CCCC#N)c1=O)c1ccc(F)cc1 [Compound 647]
9: Blackgrass plant response rating [2, 25] | Plant response rating, B. signalgrass [3, 26] | Crabgrass plant response rating [6, 28] | Crabgrass plant response rating [6, 22] | Plant response rating, Crabgrass [6, 23] | Plant response rating, Crabgrass [6, 26] | Plant response rating, Crabgrass [6, 27] | Giant foxtail plant response rating [7, 28] | Giant foxtail plant response rating [7, 22] | Plant response rating, Giant foxtail [7, 23] | Giant foxtail plant response rating [7, 24] | Plant response rating, Velvetleaf [13, 27] | Plant response rating, Wild oats [15, 26]
3: B. signalgrass plant response rating [3, 24] | Corn plant response rating [5, 25] | Soybean plant response rating [11, 28] | Wheat plant response rating [14, 28]
5: Corn plant response rating [5, 22] | Plant response rating, Corn [5, 26] | Rape plant response rating [10, 24] | Plant response rating, Velvetleaf [13, 21] | Velvetleaf plant response rating [13, 28] | Wild oats plant response rating [15, 24]
2: Corn plant response rating [5, 28] | Morningglory plant response rating [8, 22] | Plant response rating, Soybean [11, 21] | Sugarbeets plant response rating [12, 28]
1: Plant response rating, Cocklebur [4, 26] | Plant response rating, Soybean [11, 26] | Plant response rating, Soybean [11, 27] | Plant response rating, Sugarbeets [12, 21] | Wheat plant response rating [14, 24]
6: Plant response rating, Blackgrass [2, 21] | Plant response rating, B. signalgrass [3, 28] | Plant response rating, Corn [5, 23] | Plant response rating, Morningglory [8, 23] | Velvetleaf plant response rating [13, 24] | Wheat plant response rating [14, 25] | Plant response rating, Nutsedge [16, 23]
10: Plant response rating, Blackgrass [2, 26] | Plant response rating, Blackgrass [2, 27] | Plant response rating, B. signalgrass [3, 27] | Plant response rating, Corn [5, 27] | Giant foxtail plant response rating [7, 25] | Plant response rating, Giant foxtail [7, 26] | Plant response rating, Giant foxtail [7, 27] | Redroot pigweed plant response rating [9, 24] | Redroot pigweed plant response rating [9, 25] | Plant response rating, Redroot pigweed [9, 26] | Plant response rating, Redroot pigweed [9, 27] | Plant response rating, Rape [10, 26] | Plant response rating, Rape [10, 27] | Plant response rating, Wild oats [15, 27]
4: Plant response rating, B. signalgrass [3, 21] | Cocklebur plant response rating [4, 22] | Plant response rating, Cocklebur [4, 23] | Redroot pigweed plant response rating [9, 28]
8: Plant response rating, Blackgrass [2, 23] | Plant response rating, B. signalgrass [3, 23] | Crabgrass plant response rating [6, 24] | Crabgrass plant response rating [6, 25] | Plant response rating, Giant foxtail [7, 21] | Rape plant response rating [10, 25] | Sugarbeets plant response rating [12, 25] | Plant response rating, Sugarbeets [12, 26] | Plant response rating, Sugarbeets [12, 27] | Velvetleaf plant response rating [13, 25] | Plant response rating, Velvetleaf [13, 26] | Plant response rating, Wheat [14, 26] | Plant response rating, Wheat [14, 27] | Wild oats plant response rating [15, 25]
0: Plant response rating, Bedstraw [1] | Plant response rating, Cocklebur [4, 21] | Cocklebur plant response rating [4, 28] | Cocklebur plant response rating [4, 24] | Cocklebur plant response rating [4, 25] | Plant response rating, Corn [5, 21] | Corn plant response rating [5, 24] | Plant response rating, Morningglory [8, 21] | Morningglory plant response rating [8, 28] | Morningglory plant response rating [8, 24] | Morningglory plant response rating [8, 25] | Plant response rating, Redroot pigweed [9, 21] | Plant response rating, Rape [10, 21] | Rape plant response rating [10, 28] | Soybean plant response rating [11, 24] | Soybean plant response rating [11, 25] | Plant response rating, Wheat [14, 21] | Plant response rating, Wild oats [15, 21] | Wild oats plant response rating [15, 28] | Plant response rating, Nutsedge [16, 21] | Nutsedge plant response rating [16, 28] | Nutsedge plant response rating [16, 24] | Nutsedge plant response rating [16, 25] | Plant response rating, Rice (0 to 10 scale, 0 is no effect, 10 is complete control) [17, 29] | Rice plant response rating (0 to 10 scale, 0 is no effect, 10 is complete control) [17, 30] | Rice plant response rating [17, 31] | Rice plant response rating [17, 32] | Plant response rating, S. Flatsedge (0 to 10 scale, 0 is no effect, 10 is complete control) [18, 29] | S. Flatsedge plant response rating (0 to 10 scale, 0 is no effect, 10 is complete control) [18, 30] | S. Flatsedge plant response rating [18, 31] | S. Flatsedge plant response rating [18, 32] | Plant response rating, Ducksalad (0 to 10 scale, 0 is no effect, 10 is complete control) [19, 29] | Ducksalad plant response rating (0 to 10 scale, 0 is no effect, 10 is complete control) [19, 30] | Ducksalad plant response rating [19, 31] | Ducksalad plant response rating [19, 32] | Plant response rating, Barnyardgrass (0 to 10 scale, 0 is no effect, 10 is complete control) [20, 29] | Barnyardgrass plant response rating (0 to 10 scale, 0 is no effect, 10 is complete control) [20, 30] | Barnyardgrass plant response rating [20, 31] | Barnyardgrass plant response rating [20, 32]
7: Blackgrass plant response rating [2, 22] | Blackgrass plant response rating [2, 24] | B. signalgrass plant response rating [3, 22] | B. signalgrass plant response rating [3, 25] | Plant response rating, Cocklebur [4, 27] | Plant response rating, Crabgrass [6, 21] | Plant response rating, Morningglory [8, 26] | Plant response rating, Morningglory [8, 27] | Plant response rating, Rape [10, 23] | Sugarbeets plant response rating [12, 24]
